According to the supplement of paper PMC11208160:

Test: recombinant UMI read abundance after kanamycin selection (control-corrected) (log10(CPM+1)); higher = more efficient recombination; extreme values may be limits of the assay; sequences stand for … in AGTGCAGAGAAAATCGGCCAGTTTTCTCTGCCTGCAGTCCGCATGCCGTGGGACCCCTTGGGTTCTAACCTGTTGCCTAGATTTATGCAGCGGACTGCCTTTCTCCCAAAGTGATAAACCGG…AGGTTGGTTTCACT; site = the 11-nt donor
Outline: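 Sequencing read counts were converted to CPM, averaged over two replicates and scaled by control-derived factors. Results are given as log10(CPM+1). The reads covered the donor–target junction of recombinant UMIs from a pooled Escherichia coli screen of donor and donor-binding-loop pairs for the IS621 bridge recombinase.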
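Further: IS621 bridge recombinase in Escherichia coli cells against a fixed T5 target plasmid.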

| Sequence | recombinant UMI read abundance (log10) |
| --- | --- |
| CGAGGACCATGGACCGGTTTTCCCGGTAATCCGTATTTGGG (site CGAGGACCTAC) | 0 |
| CGAGGACCATGGACCGGTTTTCCCGGTAATCCGTATTTGGG (site CGAGGACCTCA) | 0.0034 |
| CGAGGACCATGGACCGGTTTTCCCGGTAATCCGTATTTGGG (site CGAGGACCTCC) | 0.0104 |
| CGAGGACCATGGACCGGTTTTCCCGGTAATCCGTATTTGGG (site CGAGGACCTCG) | 0 |
| CGAGGACCATGGACCGGTTTTCCCGGTAATCCGTATTTGGG (site CGAGGACCTCT) | 0.0267 |
| CGAGGACCATGGACCGGTTTTCCCGGTAATCCGTATTTGGG (site CGAGGACCTGC) | 0 |
| CGAGGACCATGGACCGGTTTTCCCGGTAATCCGTATTTGGG (site CGAGGACCTTC) | 0.00702 |
| CGAGGACCATGGACCGGTTTTCCCGGTAATCCGTATTTGGG (site CGAGGAGCTCC) | 0.00291 |
| CGAGGACCATGGACCGGTTTTCCCGGTAATCCGTATTTGGG (site CGAGGATCTCC) | 0.156 |
| CGAGGACCATGGACCGGTTTTCCCGGTAATCCGTATTTGGG (site CGAGGCCCTCC) | 0.0207 |
| CGAGGACCATGGACCGGTTTTCCCGGTAATCCGTATTTGGG (site CGAGGGCCTCC) | 0.0101 |
| CGAGGACCATGGACCGGTTTTCCCGGTAATCCGTATTTGGG (site CGAGGTCCTCC) | 0.00323 |
| CGAGGACCATGGACCGGTTTTCCCGGTAATCCGTATTTGGG (site CGAGTACCTCC) | 0 |
| CGAGGACCATGGACCGGTTTTCCCGGTAATCCGTATTTGGG (site CGATGACCTCC) | 0.0104 |
| CGAGGACCATGGACCGGTTTTCCCGGTAATCCGTATTTGGG (site CGCGGACCTCC) | 0 |
| CGAGGACCATGGACCGGTTTTCCCGGTAATCCGTATTTGGG (site CGGGGACCTCC) | 0 |
| CGAGGACCATGGACCGGTTTTCCCGGTAATCCGTATTTGGG (site CGTGGACCTCC) | 0.0136 |
| CGAGGACCATGGACCGGTTTTCCCGGTAATCCGTATTTGGG (site CTAGGACCTCC) | 0.00778 |
| CGAGGACCATGGACCGGTTTTCCCGGTAATCCGTATTTGGG (site GGAGGACCTCC) | 0.0223 |
| CGAGGACCATGGACCGGTTTTCCCGGTAATCCGTATTTGGG (site TGAGGACCTCC) | 0.02 |
| CGAGGACCATGGACCGGTTTTCCCGGTAATCCGTATTTGGT (site CGAGGACCTAC) | 0.0053 |
| CGAGGACCATGGACCGGTTTTCCCGGTAATCCGTATTTGGT (site CGAGGACCTCC) | 0.0157 |
| CGAGGACCATGGACCGGTTTTCCCGGTAATCCGTATTTGGT (site CGAGGACCTGC) | 0 |
| CGAGGACCATGGACCGGTTTTCCCGGTAATCCGTATTTGGT (site CGAGGACCTTC) | 0.0098 |
| CGAGGACCATGGACCGGTTTTCCCGGTAATCCGTATTTGTG (site CGAGGACCTCA) | 0.00285 |

| Sequence | recombinant UMI read abundance (log10) |
| --- | --- |
| CGAGGACCATGGACCGGTTTTCCCGGTAATCCGTATTTGTG (site CGAGGACCTCC) | 0.0189 |
| CGAGGACCATGGACCGGTTTTCCCGGTAATCCGTATTTGTG (site CGAGGACCTCG) | 0 |
| CGAGGACCATGGACCGGTTTTCCCGGTAATCCGTATTTGTG (site CGAGGACCTCT) | 0.0187 |
| CGAGGAGCATGGACCGGTTTTCCCGGTAATCCGTATTTGGG (site CGAGGAACTCC) | 0.567 |
| CGAGGAGCATGGACCGGTTTTCCCGGTAATCCGTATTTGGG (site CGAGGACCTCC) | 0.0303 |
| CGAGGAGCATGGACCGGTTTTCCCGGTAATCCGTATTTGGG (site CGAGGAGCTCC) | 0.918 |
| CGAGGAGCATGGACCGGTTTTCCCGGTAATCCGTATTTGGG (site CGAGGATCTCC) | 0.704 |
| CGAGGTCCATGGACCGGTTTTCCCGGTAATCCGTATTTGGG (site CGAGGACCTCC) | 0.0132 |
| CGAGGTCCATGGACCGGTTTTCCCGGTAATCCGTATTTGGG (site CGAGGCCCTCC) | 0.0189 |
| CGAGGTCCATGGACCGGTTTTCCCGGTAATCCGTATTTGGG (site CGAGGGCCTCC) | 0.0131 |
| CGAGGTCCATGGACCGGTTTTCCCGGTAATCCGTATTTGGG (site CGAGGTCCTCC) | 0.0134 |
| CGAGGTGCATGGACCGGTTTTCCCGGTAATCCGTATTTGAT (site CAAGGTGCTAT) | 1.84 |
| CGAGGTGCATGGACCGGTTTTCCCGGTAATCCGTATTTGAT (site CCAGGTGCTAT) | 1.37 |
| CGAGGTGCATGGACCGGTTTTCCCGGTAATCCGTATTTGAT (site CGAGGTGCTAT) | 2.36 |
| CGAGGTGCATGGACCGGTTTTCCCGGTAATCCGTATTTGAT (site CTAGGTGCTAT) | 1.6 |
| CGAGTAGCATGGACCGGTTTTCCCGGTAATCCGTATTTGCC (site CGAGTAGCTGG) | 1.66 |
| CGAGTATCATGGACCGGTTTTCCCGGTAATCCGTATTTGGC (site CGAGTATCTGC) | 3.08 |
| CGAGTATCATGGACCGGTTTTCCCGGTAATCCGTATTTGGC (site CTAGTATCTGT) | 2.29 |
| CGAGTCACATGGACCGGTTTTCCCGGTAATCCGTATTTGGG (site CAAGTCACTCC) | 0.0136 |
| CGAGTCACATGGACCGGTTTTCCCGGTAATCCGTATTTGGG (site CCAGTCACTCC) | 0.0249 |
| CGAGTCACATGGACCGGTTTTCCCGGTAATCCGTATTTGGG (site CGAGTCACTCC) | 0.184 |
| CGAGTCACATGGACCGGTTTTCCCGGTAATCCGTATTTGGG (site CTAGTCACTCC) | 0.00855 |
| CGAGTGGCATGGACCGGTTTTCCCGGTAATCCGTATTTGAG (site CGAGTGGCTCT) | 1.85 |
| CGATAATCATGGACCGGTTTTCCCGGTAATCCGTATTTGGT (site CGATAATCTAC) | 2.74 |
| CGATAATCATGGACCGGTTTTCCCGGTAATCCGTATTTGGT (site CGATCATCTAG) | 0 |

| Sequence | recombinant UMI read abundance (log10) |
| --- | --- |
| CGATCATCATGGACCGGTTTTCCCGGTAATCCGTATTTGAC (site CGATCATCTAG) | 0 |
| CGATCATCATGGACCGGTTTTCCCGGTAATCCGTATTTGAC (site CGATCATCTGT) | 1.49 |
| CGATCATCATGGACCGGTTTTCCCGGTAATCCGTATTTGCA (site CGATCATCTAG) | 0 |
| CGATCATCATGGACCGGTTTTCCCGGTAATCCGTATTTGCA (site CGATCATCTCG) | 0 |
| CGATCATCATGGACCGGTTTTCCCGGTAATCCGTATTTGCA (site CGATCATCTGG) | 0 |
| CGATCATCATGGACCGGTTTTCCCGGTAATCCGTATTTGCA (site CGATCATCTTG) | 2.31 |
| CGATCATCATGGACCGGTTTTCCCGGTAATCCGTATTTGGG (site CGATCATCTAG) | 0 |
| CGATCATCATGGACCGGTTTTCCCGGTAATCCGTATTTGGG (site CGATCATCTCC) | 0.00655 |
| CGATCCCCATGGACCGGTTTTCCCGGTAATCCGTATTTGAA (site CGATCCCCTTT) | 0.71 |
| CGATCGACATGGACCGGTTTTCCCGGTAATCCGTATTTGTG (site CGATCGACTAA) | 0.242 |
| CGATCGACATGGACCGGTTTTCCCGGTAATCCGTATTTGTG (site CGATCGACTCA) | 0.139 |
| CGATCGACATGGACCGGTTTTCCCGGTAATCCGTATTTGTG (site CGATCGACTGA) | 0 |
| CGATCGACATGGACCGGTTTTCCCGGTAATCCGTATTTGTG (site CGATCGACTTA) | 0.319 |
| CGATCGACATGGACCGGTTTTCCCGGTAATCCGTATTTGTT (site AGATCGACTAA) | 0.0131 |
| CGATCGACATGGACCGGTTTTCCCGGTAATCCGTATTTGTT (site CAATCGACTAA) | 0.0144 |
| CGATCGACATGGACCGGTTTTCCCGGTAATCCGTATTTGTT (site CCATCGACTAA) | 0.0246 |
| CGATCGACATGGACCGGTTTTCCCGGTAATCCGTATTTGTT (site CGAACGACTAA) | 0.0148 |
| CGATCGACATGGACCGGTTTTCCCGGTAATCCGTATTTGTT (site CGACCGACTAA) | 0.509 |
| CGATCGACATGGACCGGTTTTCCCGGTAATCCGTATTTGTT (site CGAGCGACTAA) | 0.0076 |
| CGATCGACATGGACCGGTTTTCCCGGTAATCCGTATTTGTT (site CGATAGACTAA) | 0.00765 |
| CGATCGACATGGACCGGTTTTCCCGGTAATCCGTATTTGTT (site CGATCAACTAA) | 0.0776 |
| CGATCGACATGGACCGGTTTTCCCGGTAATCCGTATTTGTT (site CGATCCACTAA) | 0.0134 |
| CGATCGACATGGACCGGTTTTCCCGGTAATCCGTATTTGTT (site CGATCGACTAA) | 0.6 |
| CGATCGACATGGACCGGTTTTCCCGGTAATCCGTATTTGTT (site CGATCGACTAC) | 0.0194 |
| CGATCGACATGGACCGGTTTTCCCGGTAATCCGTATTTGTT (site CGATCGACTAG) | 1.09 |
